# Data: ChEMBL document CHEMBL1201862, “PubChem BioAssay data set” (2004)
# Calls of active or inactive are those of the source.
# Legend:
# Cytochrome P450 3A4 = Cytochrome P450 3A4 (Homo sapiens, UniProt P08684);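 further: CYP3A4 tested as one member of a cytochrome P450 panel screen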
# [1] = target: Voltage-gated inwardly rectifying potassium channel KCNH2 (Homo sapiens, UniProt Q12809); conditions: Potency;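 further: confirmatory quantitative high-throughput screen measuring inhibition of hERG channel activity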
# Cytochrome P450 2D6 = Cytochrome P450 2D6 (Homo sapiens, UniProt P10635);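 further: CYP2D6 member of a cytochrome P450 panel assay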
# [2] = NIH-3T3 fibroblast cytotoxicity, dose response, cytotoxicity control, cell-based, fluorescence, Alamar Blue, secondary assay (AID 2327); format: functional;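 further: NIH-3T3 mouse fibroblasts cultured with fluconazole at 8 µg/mL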
# [3] = target: T1, Ubiquitin-conjugating enzyme E2 N (Homo sapiens, UniProt P61088); format: functional;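 further: Dose-response confirmation in a TR-FRET assay detecting UBC13-driven polyubiquitin chain formation, inhibition measured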
# T1 sequence (P61088 whole entry): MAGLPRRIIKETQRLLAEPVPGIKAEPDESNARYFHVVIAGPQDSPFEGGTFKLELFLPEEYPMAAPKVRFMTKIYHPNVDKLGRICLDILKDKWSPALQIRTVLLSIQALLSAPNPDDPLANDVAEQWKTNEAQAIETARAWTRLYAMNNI
# [4] = reduction of Shn3 3'UTR-driven luciferase in osteoblasts – cell-based, Clone20 osteoblasts, firefly luciferase, cherry-picked, dose response (AID 624132); format: functional;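 further: firefly luciferase luminescence from reporter carrying the Shn3 3'UTR in osteoblasts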
# Cysteine protease ATG4B = Cysteine protease ATG4B (Homo sapiens, UniProt Q9Y4P1); format: functional;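 further: Fluorescence-based dose-response confirmation assay measuring inhibition of ATG4B activity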
# Phospholipase A2 = Phospholipase A2 (Homo sapiens, UniProt P04054); format: functional;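 further: confirmatory dose-response counterscreen on phospholipase A2, testing hits that came from an ultra-high-throughput screen for ATG4B inhibitors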
# [5] = loss of viability in HepG2 cells – cell-based, CellTiter-Glo, cherry-picked, cytotoxicity control for Shn3 inhibitor project, dose response (AID 624134); format: functional
# [6] = non-specific 3'UTR reporter inhibition in Clone20-Shn3RL – cell-based, Renilla luciferase, cherry-picked, counter-screen for Shn3 inhibitor project, dose response (AID 624133); format: functional
# [7] = fluconazole-exposed Candida albicans growth modulators – fluorescence, retest, confirmation (AID 2467); format: functional, cell-based
# [8] = HEK-293T cell viability reduction – luminescence, B-cell screen hits, cytotoxicity control for BCR NF-kB inhibitor project, dose response (AID 489021); format: functional, cell-based;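 further: HEK-293T cells carrying an NF-kB luciferase reporter; cells exposed to compound for about 14 hours before viability readout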
# HEK293 = assay: HEK293T cell viability loss, resazurin readout – resazurin fluorescence, cytotoxicity control for NF-kB activator project, SAR follow-up (AID 493251); format: functional, cell-based; conditions: Homo sapiens
# [9] = general cell-killing toxicity readout – plate reader, dry powder samples, cytotoxicity control for PAX8 inhibitor project, dose response (AID 743021); format: functional, cell-based
# INS1 = assay: INS-1E survival protection against cytokine death – cell-based, luminescence, retest, dose response (AID 449756); format: functional; conditions: Rattus norvegicus;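 further: cell death triggered by IL-1 beta plus TNF-alpha plus IFN-gamma mixture; protective hits raise ATP signal compared with cytokine alone wells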
# A-375 = assay: proliferation inhibition in MITF-low A375 cells – cell-based, cherry-pick samples, set 2, counter-screen for MITF modulator project, dose response (AID 540335); format: functional; conditions: Homo sapiens
# [10] = target: T2, Microphthalmia-associated transcription factor (Homo sapiens, UniProt O75030); assay: reducers of TRPM1 reporter luminescence, concentration series – cell-based, SK-MEL-5, cherry-picked, set 3, MITF inhibitor project, dose response (AID 493073); format: functional;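 further: SK-MEL-5 melanoma cells with luciferase driven by the MITF target TRPM1 promoter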
# T2 sequence (O75030 whole entry): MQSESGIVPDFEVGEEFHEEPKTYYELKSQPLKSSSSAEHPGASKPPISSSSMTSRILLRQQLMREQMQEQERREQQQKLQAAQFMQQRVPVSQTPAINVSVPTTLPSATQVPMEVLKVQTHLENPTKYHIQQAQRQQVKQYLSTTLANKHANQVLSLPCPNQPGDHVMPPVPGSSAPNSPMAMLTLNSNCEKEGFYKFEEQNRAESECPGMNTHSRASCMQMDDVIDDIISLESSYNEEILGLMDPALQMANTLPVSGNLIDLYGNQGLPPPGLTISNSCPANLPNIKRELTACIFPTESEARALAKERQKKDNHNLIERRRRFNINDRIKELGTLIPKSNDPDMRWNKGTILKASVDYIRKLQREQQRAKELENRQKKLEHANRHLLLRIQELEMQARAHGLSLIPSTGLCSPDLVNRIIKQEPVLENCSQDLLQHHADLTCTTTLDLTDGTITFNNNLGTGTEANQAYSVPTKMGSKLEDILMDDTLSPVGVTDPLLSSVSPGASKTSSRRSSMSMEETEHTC
# [11] = target: T3, Heat shock factor protein 1 (Mus musculus, UniProt P38532); assay: decrease of HSF1-responsive luciferase luminescence – cell-based, NIH3T3, dose retest, confirmation (AID 2382); format: functional;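 further: NIH3T3 fibroblasts with HSF1-driven luciferase reporter stressed by proteasome inhibitor MG132; luminescence from HSF1-driven luciferase expression after 8 hours of MG132 stress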
# T3 sequence (P38532 whole entry): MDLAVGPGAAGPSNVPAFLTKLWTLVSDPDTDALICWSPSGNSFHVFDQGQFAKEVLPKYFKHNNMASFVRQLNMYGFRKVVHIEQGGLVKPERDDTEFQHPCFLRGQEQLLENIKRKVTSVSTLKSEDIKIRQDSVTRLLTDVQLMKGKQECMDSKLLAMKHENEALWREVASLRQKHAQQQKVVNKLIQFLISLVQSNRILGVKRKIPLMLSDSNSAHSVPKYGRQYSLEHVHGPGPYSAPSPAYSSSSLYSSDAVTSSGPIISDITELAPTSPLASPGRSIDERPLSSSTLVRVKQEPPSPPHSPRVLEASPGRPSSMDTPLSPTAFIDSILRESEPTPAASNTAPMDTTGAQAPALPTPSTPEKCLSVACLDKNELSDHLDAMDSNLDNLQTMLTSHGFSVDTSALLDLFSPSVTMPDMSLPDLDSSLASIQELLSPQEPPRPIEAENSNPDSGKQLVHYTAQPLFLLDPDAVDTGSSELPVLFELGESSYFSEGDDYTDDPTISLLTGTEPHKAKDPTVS
# Paired box protein Pax-8 = Paired box protein Pax-8 (Homo sapiens, UniProt Q06710); assay: PAX8 transcriptional activity inhibition in RMG-I – RMG-I cells, luciferase, cherry-pick, dose response (AID 687027); format: functional, cell-based;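 further: luciferase reporter driven by Pax8 target thyroperoxidase promoter measured by SteadyGlo luminescence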
# [12] = Luminescence Cell-Based Dose Response HTS to Identify Inhibitors of 5'UTR Stem-Loop Driven Prion Protein mRNA Translation in H4 Neuroglioblastoma Cells. [Related pubchem assays: 1827 (Project Summary), 1813 (Primary HTS)]; format: functional
# [13] = luciferase reporter signal suppression in cells – H4 neuroglioma cells, luminescence, dose response (AID 1990); format: functional, cell-based
# Hexokinase HKDC1 = target: T4, Hexokinase HKDC1 (Homo sapiens, UniProt Q2TB90); assay: analog inhibition of human HKDC1 activity – biochemical, set 2, SAR follow-up (AID 588355); format: functional
# T4 sequence (Q2TB90 whole entry): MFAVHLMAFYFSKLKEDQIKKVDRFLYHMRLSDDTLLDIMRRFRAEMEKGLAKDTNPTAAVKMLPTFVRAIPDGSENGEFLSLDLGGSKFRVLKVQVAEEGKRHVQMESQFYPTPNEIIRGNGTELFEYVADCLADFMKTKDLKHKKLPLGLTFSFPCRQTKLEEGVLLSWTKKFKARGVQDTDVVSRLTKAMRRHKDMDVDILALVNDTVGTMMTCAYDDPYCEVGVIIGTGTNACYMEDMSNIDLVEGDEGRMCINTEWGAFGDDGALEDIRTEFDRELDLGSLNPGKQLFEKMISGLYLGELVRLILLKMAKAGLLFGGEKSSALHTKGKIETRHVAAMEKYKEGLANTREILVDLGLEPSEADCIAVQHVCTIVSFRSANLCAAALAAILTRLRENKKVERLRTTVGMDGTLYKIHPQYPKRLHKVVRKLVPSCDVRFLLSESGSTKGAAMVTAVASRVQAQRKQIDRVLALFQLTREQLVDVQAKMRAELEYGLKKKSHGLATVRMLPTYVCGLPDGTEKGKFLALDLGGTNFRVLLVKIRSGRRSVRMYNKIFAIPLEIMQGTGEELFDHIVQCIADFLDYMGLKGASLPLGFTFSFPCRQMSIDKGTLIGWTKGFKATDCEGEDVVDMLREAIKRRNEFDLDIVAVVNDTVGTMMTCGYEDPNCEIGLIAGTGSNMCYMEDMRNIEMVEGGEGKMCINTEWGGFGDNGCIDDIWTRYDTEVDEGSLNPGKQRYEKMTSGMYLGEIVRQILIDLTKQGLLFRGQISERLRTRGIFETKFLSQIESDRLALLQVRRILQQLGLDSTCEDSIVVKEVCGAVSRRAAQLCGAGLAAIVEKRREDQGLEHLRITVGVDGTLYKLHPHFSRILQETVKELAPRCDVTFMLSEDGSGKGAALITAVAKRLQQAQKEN
# [14] = target: Luciferin 4-monooxygenase (Photinus pyralis, UniProt P08659); assay: inhibition of purified Photinus pyralis luciferase – biochemical, luminescence, dose response (AID 1891)
# Hexokinase-1 = target: T5, Hexokinase-1 (Homo sapiens, UniProt P19367); assay: hexokinase 1 activity inhibitors, potency – biochemical, set 2, resazurin fluorescence coupled readout, selectivity assay for HKDC1 inhibitor project, SAR follow-up (AID 588356); format: functional
# T5 sequence (P19367 whole entry): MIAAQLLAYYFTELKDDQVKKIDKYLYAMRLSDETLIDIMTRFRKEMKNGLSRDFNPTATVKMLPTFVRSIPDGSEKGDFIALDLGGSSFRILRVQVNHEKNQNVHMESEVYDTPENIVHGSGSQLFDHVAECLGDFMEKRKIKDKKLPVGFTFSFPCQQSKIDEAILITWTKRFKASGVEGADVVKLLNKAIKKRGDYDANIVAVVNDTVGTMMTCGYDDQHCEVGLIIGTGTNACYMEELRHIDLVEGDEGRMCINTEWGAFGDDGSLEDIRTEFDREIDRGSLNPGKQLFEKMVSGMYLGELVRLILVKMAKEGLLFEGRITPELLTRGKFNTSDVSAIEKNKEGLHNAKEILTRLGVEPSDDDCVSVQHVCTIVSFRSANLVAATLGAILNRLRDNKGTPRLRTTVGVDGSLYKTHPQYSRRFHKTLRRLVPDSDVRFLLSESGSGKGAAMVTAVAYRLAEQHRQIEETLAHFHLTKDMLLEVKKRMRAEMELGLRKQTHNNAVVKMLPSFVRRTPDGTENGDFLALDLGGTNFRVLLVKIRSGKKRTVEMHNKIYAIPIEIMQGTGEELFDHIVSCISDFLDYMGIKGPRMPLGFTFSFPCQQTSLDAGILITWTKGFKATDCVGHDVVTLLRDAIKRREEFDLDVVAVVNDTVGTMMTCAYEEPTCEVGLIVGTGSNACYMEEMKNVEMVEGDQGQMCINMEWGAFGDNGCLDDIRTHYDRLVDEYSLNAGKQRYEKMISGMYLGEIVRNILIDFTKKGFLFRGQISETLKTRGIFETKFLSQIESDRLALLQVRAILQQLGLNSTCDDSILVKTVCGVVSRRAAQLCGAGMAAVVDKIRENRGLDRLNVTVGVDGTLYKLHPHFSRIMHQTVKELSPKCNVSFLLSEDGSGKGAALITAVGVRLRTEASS
# [15] = Luminescence Cell-Based Dose Confirmation HTS to Identify Inhibitors of Platelet Dense Granule Release. [Related pubchem assays: 1663 (Primary HTS), 1678 (Summary of Project)]; format: functional
# [16] = target: Dual specificity tyrosine-phosphorylation-regulated kinase 1A (Rattus norvegicus, UniProt Q63470); format: biochemical, Homo sapiens
# [17] = target: Induced myeloid leukemia cell differentiation protein Mcl-1 (Homo sapiens, UniProt Q07820); format: functional
# [18] = target: Dual specificity protein kinase CLK1 (Homo sapiens, UniProt P49759); assay: inhibition of human CLK1 activity – biochemical, cherry-picked samples, selectivity assay for Dyrk1A inhibitor project, dose response (AID 588811)
# CHO = CHO cell viability loss, potency – luminescence, cytotoxicity control for TLR9-MyD88 binding inhibitor project, dose response (AID 588339); format: functional, cell-based, hamster; conditions: Cricetulus griseus;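 further: CHO cells stably coexpressing TLR9 and MyD88 fusions from primary screen; compound exposure lasted 48 hours before viability readout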
# [19] = target: Tyrosyl-DNA phosphodiesterase 2 (Homo sapiens, UniProt O95551); assay: potency against TDP2 phosphodiesterase activity – biochemical, epi absorbance, IC50, dose response (AID 743297)
# [20] = target: Short transient receptor potential channel 6 (Mus musculus, UniProt Q61143); assay: mouse TRPC6 channel blockers, concentration series – HEK293 cells, membrane potential dye, IC50, selectivity assay for selective TRPC4 inhibitor project, dose response (AID 492987); format: functional, cell-based
# Chain of Short transient receptor potential channel 6 (Q61143 whole entry): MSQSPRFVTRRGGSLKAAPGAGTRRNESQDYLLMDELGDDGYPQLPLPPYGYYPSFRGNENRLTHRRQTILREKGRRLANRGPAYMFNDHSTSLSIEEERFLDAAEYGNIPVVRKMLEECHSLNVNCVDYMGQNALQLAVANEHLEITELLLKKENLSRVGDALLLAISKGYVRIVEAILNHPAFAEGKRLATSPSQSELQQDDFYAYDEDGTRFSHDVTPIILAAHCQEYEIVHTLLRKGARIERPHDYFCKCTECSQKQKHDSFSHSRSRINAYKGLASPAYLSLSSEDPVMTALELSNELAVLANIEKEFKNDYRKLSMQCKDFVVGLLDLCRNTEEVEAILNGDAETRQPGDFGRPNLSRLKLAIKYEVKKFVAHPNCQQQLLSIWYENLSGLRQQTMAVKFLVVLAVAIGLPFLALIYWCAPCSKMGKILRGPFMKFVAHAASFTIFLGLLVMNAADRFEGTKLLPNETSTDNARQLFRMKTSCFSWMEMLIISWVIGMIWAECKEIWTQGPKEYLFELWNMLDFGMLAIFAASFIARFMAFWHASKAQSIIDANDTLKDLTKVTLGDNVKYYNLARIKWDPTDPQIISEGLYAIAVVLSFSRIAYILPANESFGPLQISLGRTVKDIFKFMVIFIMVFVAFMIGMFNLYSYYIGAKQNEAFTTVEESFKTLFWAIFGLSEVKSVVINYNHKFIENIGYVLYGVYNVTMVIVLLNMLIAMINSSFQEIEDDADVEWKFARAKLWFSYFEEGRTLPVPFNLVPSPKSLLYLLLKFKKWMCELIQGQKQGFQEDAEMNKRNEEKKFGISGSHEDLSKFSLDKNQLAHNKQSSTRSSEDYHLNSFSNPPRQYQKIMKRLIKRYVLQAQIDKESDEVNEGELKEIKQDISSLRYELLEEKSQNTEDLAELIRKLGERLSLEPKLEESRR
# Chain of Paired box protein Pax-8 (Q06710 whole entry): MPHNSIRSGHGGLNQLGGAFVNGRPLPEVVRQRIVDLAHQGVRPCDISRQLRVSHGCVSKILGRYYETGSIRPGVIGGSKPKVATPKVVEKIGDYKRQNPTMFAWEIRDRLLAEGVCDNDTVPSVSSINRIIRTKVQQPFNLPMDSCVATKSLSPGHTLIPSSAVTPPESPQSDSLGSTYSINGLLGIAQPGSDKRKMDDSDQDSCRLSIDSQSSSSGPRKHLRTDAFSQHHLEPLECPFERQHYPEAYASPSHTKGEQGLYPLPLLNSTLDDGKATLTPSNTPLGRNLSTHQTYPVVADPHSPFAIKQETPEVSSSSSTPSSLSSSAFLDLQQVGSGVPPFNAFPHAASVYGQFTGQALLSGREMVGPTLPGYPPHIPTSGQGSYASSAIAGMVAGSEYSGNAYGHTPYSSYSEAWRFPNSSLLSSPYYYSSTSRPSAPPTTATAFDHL
# Chain of Dual specificity protein kinase CLK1 (P49759 whole entry, the tested form may be a part): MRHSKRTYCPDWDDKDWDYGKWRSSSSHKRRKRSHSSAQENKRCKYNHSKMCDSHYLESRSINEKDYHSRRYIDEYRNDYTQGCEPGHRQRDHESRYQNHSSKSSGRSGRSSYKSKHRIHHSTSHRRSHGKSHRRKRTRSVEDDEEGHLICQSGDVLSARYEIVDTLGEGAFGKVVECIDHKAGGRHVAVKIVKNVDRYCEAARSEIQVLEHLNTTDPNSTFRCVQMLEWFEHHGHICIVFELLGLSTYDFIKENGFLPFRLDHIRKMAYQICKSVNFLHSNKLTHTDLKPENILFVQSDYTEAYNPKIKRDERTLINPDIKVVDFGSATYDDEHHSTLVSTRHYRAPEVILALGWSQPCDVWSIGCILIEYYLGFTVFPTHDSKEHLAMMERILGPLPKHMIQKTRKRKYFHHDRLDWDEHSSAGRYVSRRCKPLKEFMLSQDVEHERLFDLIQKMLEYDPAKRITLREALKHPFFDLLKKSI
# Chain of Phospholipase A2 (P04054 whole entry): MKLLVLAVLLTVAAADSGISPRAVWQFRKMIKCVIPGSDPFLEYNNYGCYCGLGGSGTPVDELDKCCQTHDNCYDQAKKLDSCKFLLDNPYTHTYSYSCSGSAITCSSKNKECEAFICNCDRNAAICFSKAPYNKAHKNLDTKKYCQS
# Chain of Induced myeloid leukemia cell differentiation protein Mcl-1 (Q07820 whole entry): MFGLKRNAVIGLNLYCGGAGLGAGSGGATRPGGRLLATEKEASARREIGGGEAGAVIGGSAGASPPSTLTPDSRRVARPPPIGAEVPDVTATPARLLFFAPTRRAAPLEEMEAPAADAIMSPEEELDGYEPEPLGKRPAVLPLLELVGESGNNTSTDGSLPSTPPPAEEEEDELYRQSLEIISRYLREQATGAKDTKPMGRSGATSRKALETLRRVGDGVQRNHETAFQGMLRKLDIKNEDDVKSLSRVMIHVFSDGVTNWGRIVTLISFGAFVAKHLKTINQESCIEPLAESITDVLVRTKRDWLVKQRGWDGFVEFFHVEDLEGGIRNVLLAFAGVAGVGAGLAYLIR
# Chain of Tyrosyl-DNA phosphodiesterase 2 (O95551 whole entry): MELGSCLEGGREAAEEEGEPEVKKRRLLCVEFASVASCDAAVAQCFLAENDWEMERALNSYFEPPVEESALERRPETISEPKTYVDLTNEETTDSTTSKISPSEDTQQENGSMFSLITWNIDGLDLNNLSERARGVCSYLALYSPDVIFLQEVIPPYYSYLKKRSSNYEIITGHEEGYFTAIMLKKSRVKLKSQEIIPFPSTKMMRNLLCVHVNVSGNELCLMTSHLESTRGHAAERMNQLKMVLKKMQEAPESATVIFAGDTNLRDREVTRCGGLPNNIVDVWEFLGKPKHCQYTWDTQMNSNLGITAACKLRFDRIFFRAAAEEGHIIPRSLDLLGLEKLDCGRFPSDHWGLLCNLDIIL
# Chain of Voltage-gated inwardly rectifying potassium channel KCNH2 (Q12809 whole entry): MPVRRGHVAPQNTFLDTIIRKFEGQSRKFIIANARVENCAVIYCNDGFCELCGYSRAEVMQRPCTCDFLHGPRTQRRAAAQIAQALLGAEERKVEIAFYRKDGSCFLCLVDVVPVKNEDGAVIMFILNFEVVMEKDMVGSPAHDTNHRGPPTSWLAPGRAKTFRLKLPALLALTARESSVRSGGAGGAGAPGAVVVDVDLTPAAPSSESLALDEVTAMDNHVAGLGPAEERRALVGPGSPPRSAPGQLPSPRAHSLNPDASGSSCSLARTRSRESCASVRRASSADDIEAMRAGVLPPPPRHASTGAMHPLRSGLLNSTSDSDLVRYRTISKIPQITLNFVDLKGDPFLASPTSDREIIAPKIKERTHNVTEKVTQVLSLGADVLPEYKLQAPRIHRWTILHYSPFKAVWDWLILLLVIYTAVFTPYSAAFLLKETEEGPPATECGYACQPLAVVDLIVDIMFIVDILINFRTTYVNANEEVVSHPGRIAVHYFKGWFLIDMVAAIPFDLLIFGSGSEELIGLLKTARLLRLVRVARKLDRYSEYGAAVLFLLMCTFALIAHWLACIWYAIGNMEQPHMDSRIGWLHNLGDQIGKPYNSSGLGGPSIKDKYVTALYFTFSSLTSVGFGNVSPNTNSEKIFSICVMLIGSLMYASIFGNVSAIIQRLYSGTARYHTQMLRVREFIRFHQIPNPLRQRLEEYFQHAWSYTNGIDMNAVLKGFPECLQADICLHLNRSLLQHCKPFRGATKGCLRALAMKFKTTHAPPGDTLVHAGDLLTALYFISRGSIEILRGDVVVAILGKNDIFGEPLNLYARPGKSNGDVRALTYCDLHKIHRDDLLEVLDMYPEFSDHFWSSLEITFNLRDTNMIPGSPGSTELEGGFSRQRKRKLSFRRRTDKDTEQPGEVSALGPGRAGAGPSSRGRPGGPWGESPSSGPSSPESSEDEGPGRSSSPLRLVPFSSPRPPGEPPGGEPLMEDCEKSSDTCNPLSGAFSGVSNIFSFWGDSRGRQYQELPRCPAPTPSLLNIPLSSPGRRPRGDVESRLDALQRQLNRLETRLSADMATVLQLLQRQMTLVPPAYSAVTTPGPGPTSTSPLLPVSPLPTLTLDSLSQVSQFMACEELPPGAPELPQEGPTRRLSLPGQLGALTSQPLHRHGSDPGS
# Chain of Cytochrome P450 2D6 (P10635 whole entry): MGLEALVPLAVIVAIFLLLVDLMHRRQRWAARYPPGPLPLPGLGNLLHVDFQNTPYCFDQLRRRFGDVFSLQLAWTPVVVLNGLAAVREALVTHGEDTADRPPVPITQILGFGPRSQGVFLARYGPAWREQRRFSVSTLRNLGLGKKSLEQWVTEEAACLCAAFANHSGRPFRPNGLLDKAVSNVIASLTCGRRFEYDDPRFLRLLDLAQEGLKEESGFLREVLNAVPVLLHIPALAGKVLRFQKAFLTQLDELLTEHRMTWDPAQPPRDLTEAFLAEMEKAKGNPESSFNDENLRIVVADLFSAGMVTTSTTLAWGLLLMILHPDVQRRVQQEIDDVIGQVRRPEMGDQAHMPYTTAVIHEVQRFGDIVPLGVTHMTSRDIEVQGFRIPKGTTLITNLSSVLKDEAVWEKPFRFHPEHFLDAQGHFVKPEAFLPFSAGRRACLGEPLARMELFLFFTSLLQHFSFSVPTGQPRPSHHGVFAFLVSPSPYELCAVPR
# Chain of Cytochrome P450 3A4 (P08684 whole entry): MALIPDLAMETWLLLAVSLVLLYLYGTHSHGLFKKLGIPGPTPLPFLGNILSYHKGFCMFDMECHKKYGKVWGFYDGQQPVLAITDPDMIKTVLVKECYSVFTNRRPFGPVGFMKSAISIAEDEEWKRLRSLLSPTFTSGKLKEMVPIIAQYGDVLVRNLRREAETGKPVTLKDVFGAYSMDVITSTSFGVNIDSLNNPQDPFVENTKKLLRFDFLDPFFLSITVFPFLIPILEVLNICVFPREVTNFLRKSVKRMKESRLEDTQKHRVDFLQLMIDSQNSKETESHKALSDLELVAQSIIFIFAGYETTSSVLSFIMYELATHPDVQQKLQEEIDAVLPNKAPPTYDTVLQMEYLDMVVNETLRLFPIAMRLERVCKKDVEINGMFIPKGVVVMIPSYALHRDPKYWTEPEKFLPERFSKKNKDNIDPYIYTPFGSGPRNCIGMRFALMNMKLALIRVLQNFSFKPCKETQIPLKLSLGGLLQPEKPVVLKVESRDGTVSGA
structure (smiles),measurement,setting,value
NC(=O)CNCCC(c1ccccc1)c1ccccc1,AC50,Cytochrome P450 3A4,2 µM (inconclusive)
same,AC50,[1],15.8 µM (inconclusive)
same,AC50,Cytochrome P450 2D6,20 µM (inconclusive)
Cc1c(CCOC(=O)C23CC4(C)CC(C)(CC(C)(C4)C2)C3)sc[n+]1CC(=O)c1ccccc1,EC50,[2],> 150 µM (inactive)
same,IC50,[3],> 20 µM (inactive)
same,AC50,[4],5.84 µM (active)
same,IC50,Cysteine protease ATG4B,8.57 µM (active)
same,IC50,Phospholipase A2,8.77 µM (active)
same,AC50,[5],23.6 µM (active)
same,AC50,[6],7.21 µM (active)
same,EC50,[7],> 38 µM (not active)
COc1ccc(-c2nc(CSCC(=O)NCc3ccco3)c(C)o2)cc1,IC50,[8],> 80 µM (inactive)
same,IC50,HEK293,67.1 µM (inactive)
O=C(CCl)N(c1ccccc1)C1CCCCC1,AC50,[9],10.7 µM (active)
same,AC50,INS1,4.88 µM (active)
same,AC50,A-375,7.54 µM (active)
same,AC50,[10],4.51 µM (active)
same,EC50,[11],4.98 µM (active)
same,AC50,Paired box protein Pax-8,3.98 µM (active)
COc1cc2c(cc1OC)-c1cc(Nc3ccccc3Br)nc(=O)n1CC2,EC50,[12],13.4 µM (active)
same,EC50,[13],26.2 µM (active)
same,IC50,Hexokinase HKDC1,> 80 µM (inactive)
same,EC50,[14],> 112 µM (not active)
same,IC50,Hexokinase-1,> 80 µM (inactive)
same,EC50,[15],0.115 µM (active)
O=C(Nc1nc(-c2ccncc2)cs1)c1ccco1,AC50,[16],1.92 µM (active)
same,IC50,[17],4.34 µM (active)
same,AC50,[18],2.56 µM (active)
N#Cc1sc2nc(-c3ccccc3)cc(-c3ccco3)c2c1N,IC50,CHO,40.7 µM (inactive)
same,IC50,[19],> 128 µM (inactive)
Cc1cc(N2CCNCC2)nc2ccccc12,IC50,[20],20.4 µM (active)
